For this assay, the target named is T1, Bcl-2 protein (Recombinant Human Bcl-2 Protein) (Homo sapiens, UniProt P10415).
T1 construct: purchased Novus NBP2-34889
Put plainly: Binding evaluation of mixture library compounds to Bcl-2 using AS-MS (affinity selection mass spectrometry). Particulars: for ASMS ratio (%) n = 1: replicate n = 1; for ASMS ratio (%) n = 1 / ASMS ratio (%) n = 2: ASMS Ratio(%)=(A−C)/B×100; for ASMS ratio (%) n = 2: replicate n = 2. Put shortly:
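ASMS Ratio (%) was calculated as (A−C)/B×100, where A is the protein sample after SEC, B the protein-free sample without SEC and C the protein-free sample after SEC. Each compound was at […] in a 1200-member pool with 20 μM Bcl-2, incubated 1 h at 23° C.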

Where [1] appears, read: AS-MS, mixture of 1200 compounds, Bcl-2.
Setting [2] is: AS-MS on the mixture of 1200 library compounds.

T1 sequence (P10415 whole entry): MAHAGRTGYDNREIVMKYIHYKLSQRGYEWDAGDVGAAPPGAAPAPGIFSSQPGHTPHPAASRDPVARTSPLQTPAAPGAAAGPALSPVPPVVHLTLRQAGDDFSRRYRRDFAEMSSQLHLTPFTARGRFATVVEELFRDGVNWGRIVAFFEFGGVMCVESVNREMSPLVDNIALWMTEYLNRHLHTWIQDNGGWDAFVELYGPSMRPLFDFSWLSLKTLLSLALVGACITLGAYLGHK

On to `CCOc1cccc(-c2ccc(CN3CCN(c4ccc(C(=O)NS(=O)(=O)c5ccc(NCCSc6ccccc6)c([N+](=O)[O-])c5)nn4)CC3)cc2F)c1` [B2Q077-01, 6-[4-[[4-(3-Ethoxyphenyl)-3-fluorophenyl]methyl]piperazin-1-yl]-N-[3-nitro-4-(2-phenylsulfanylethylamino)phenyl]sulfonylpyridazine-3-carboxamide], for which, where the note is “AS-MS, mixture library, Bcl-2”, the “ASMS ratio (%) n = 1” value is recorded as 14.7% and the “ASMS ratio (%) n = 2” value was determined as 17.2%.

In the case of “6-[4-[3-[2-(5-Ethoxypyridin-3-yl)phenyl]propanoyl]piperazin-1-yl]-N-propylpyridazine-3-carboxamide [B1M077-01]”, under setting [1], the “ASMS ratio (%) n = 1” value is −0.7% and the “ASMS ratio (%) n = 2” value is given as 3.1%.

Regarding `CCOc1cncc(-c2csc(CN3CCN(c4ccc(C(=O)NCC(F)(F)F)cc4)CC3)c2)c1` [B1K068-01, 4-[4-[[4-(5-Ethoxypyridin-3-yl)thiophen-2-yl]methyl]piperazin-1-yl]-N-(2,2,2-trifluoroethyl)benzamide], under setting [1], the “ASMS ratio (%) n = 1” value amounted to 2.6% and the “ASMS ratio (%) n = 2” value is reported as −1.4%.

Consider `CCOc1cccc(-c2ccc(C(C)N3CCN(c4ccc(C(=O)N(CC)CC)cc4)CC3)cc2)c1` (stereo not shown) [B4J097-01, 4-[4-[1-[4-(3-Ethoxyphenyl)phenyl]ethyl]piperazin-1-yl]-N,N-diethylbenzamide], for which, under “AS-MS, mixture library, Bcl-2”, the “ASMS ratio (%) n = 1” value is given as −0.9% and the “ASMS ratio (%) n = 2” value was −0.4%.

As for `CCOc1cncc(-c2ccc(CN3CCN(c4ccc(C(=O)Nc5ccc(OC)cc5)nn4)CC3)cc2F)c1` [B1O078-01], under setting [2], the “ASMS ratio (%) n = 1” value is listed as 4.8% and the “ASMS ratio (%) n = 2” value stood at 1.8%.

With `CCOc1cccc(-c2cc(CN3CCN(c4ccc(C(=O)N(CC)CC)nn4)CC3)cc(C(F)(F)F)c2)c1` [B4J087-01, 6-[4-[[3-(3-Ethoxyphenyl)-5-(trifluoromethyl)phenyl]methyl]piperazin-1-yl]-N,N-diethylpyridazine-3-carboxamide], where the note is “AS-MS, mixture library, Bcl-2”, the “ASMS ratio (%) n = 1” value came out at 0.9% and the “ASMS ratio (%) n = 2” value amounted to 0.3%.

In the case of `CCOc1cccc(-c2cc(CN3CCN(c4ccc(C(=O)N(CC)CC)cc4)CC3)cc(OC(F)(F)F)c2)c1` [B4J063-01, 4-[4-[[3-(3-Ethoxyphenyl)-5-(trifluoromethoxy)phenyl]methyl]piperazin-1-yl]-N,N-diethylbenzamide], for the setting “AS-MS, mixture library, Bcl-2”, the “ASMS ratio (%) n = 1” value is 4.5% and the “ASMS ratio (%) n = 2” value is listed as 0.1%.

For the compound `CCOc1cncc(-c2ccccc2CCC(=O)N2CCN(c3ccc(C(=O)NCC45CC6CC(CC(C6)C4)C5)nn3)CC2)c1` [B1A012-01, N-(1-Adamantylmethyl)-6-[4-[3-[2-(5-ethoxypyridin-3-yl)phenyl]propanoyl]piperazin-1-yl]pyridazine-3-carboxamide], under setting [1], the “ASMS ratio (%) n = 1” value was 0.0% and the “ASMS ratio (%) n = 2” value came out at 0.0%.

In the case of `CCOc1cccc(-c2ccc(C(C)N3CCN(c4ccc(C(=O)NS(=O)(=O)CCC(F)(F)F)cc4)CC3)c(F)c2)c1` (stereo not shown) [B2N099-01, 4-[4-[1-[4-(3-Ethoxyphenyl)-2-fluorophenyl]ethyl]piperazin-1-yl]-N-(3,3,3-trifluoropropylsulfonyl)benzamide], the “ASMS ratio (%)” value is, setting by setting: (n = 1) 0.0%; (n = 2) 0.0%.

For the compound `CCOc1cccc(-c2cc(CN3CCN(c4ccc(C(=O)NS(=O)(=O)CCC(F)(F)F)nn4)CC3)cc(OC(C)C)c2)c1` [B2N083-01, 6-[4-[[3-(3-Ethoxyphenyl)-5-propan-2-yloxyphenyl]methyl]piperazin-1-yl]-N-(3,3,3-trifluoropropylsulfonyl)pyridazine-3-carboxamide], the “ASMS ratio (%)” value amounted to 0.0% (n = 1) and 0.0% (n = 2).

In the case of `CCOc1cncc(-c2cc(C(=O)N3CCN(c4ccc(C(=O)NS(=O)(=O)CCC(F)(F)F)nn4)CC3)cc(C(F)(F)F)c2)c1` [B2N018-01, 6-[4-[3-(5-Ethoxypyridin-3-yl)-5-(trifluoromethyl)benzoyl]piperazin-1-yl]-N-(3,3,3-trifluoropropylsulfonyl)pyridazine-3-carboxamide], the “ASMS ratio (%)” value (n = 1) was found to be 0.0% and the “ASMS ratio (%)” value (n = 2) is recorded as 1.0%.

For `CCOc1cccc(C#Cc2cc(C(=O)N3CCN(c4ccc(C(=O)NS(C)(=O)=O)nn4)CC3)cc(C(F)(F)F)c2)c1` [B2I019-01, 6-[4-[3-[2-(3-Ethoxyphenyl)ethynyl]-5-(trifluoromethyl)benzoyl]piperazin-1-yl]-N-methylsulfonylpyridazine-3-carboxamide], for the setting “AS-MS, mixture library, Bcl-2”, the “ASMS ratio (%) n = 1” value worked out at 0.0%.

As for “6-[4-[3-[2-(3-Ethoxyphenyl)ethynyl]-5-(trifluoromethyl)benzoyl]piperazin-1-yl]-N-propylpyridazine-3-carboxamide [B1M013-01]”, under setting [1], the “ASMS ratio (%) n = 1” value is 2.9% and the “ASMS ratio (%) n = 2” value was −1.1%.

With “6-[4-[[3-(5-Ethoxypyridin-3-yl)-5-(trifluoromethoxy)phenyl]methyl]piperazin-1-yl]-N-propylpyridazine-3-carboxamide [B1M035-01]”, under setting [1], the “ASMS ratio (%) n = 1” value came out at 2.9% and the “ASMS ratio (%) n = 2” value is −1.7%.

Consider `CCCNC(=O)c1ccc(N2CCN(Cc3ccccc3-c3cncc(OCC)c3)CC2)nn1` [B1M043-01], for which, under setting [1], the “ASMS ratio (%) n = 1” value is on record as 2.2% and the “ASMS ratio (%) n = 2” value was −3.1%.

With `CCOc1cccc(-c2csc(C(=O)N3CCN(c4ccc(C(=O)NS(=O)(=O)CC56CC7CC(CC(C7)C5)C6)cc4)CC3)c2)c1` [B2A023-01, N-(1-Adamantylmethylsulfonyl)-4-[4-[4-(3-ethoxyphenyl)thiophene-2-carbonyl]piperazin-1-yl]benzamide], for the setting “AS-MS, mixture library, Bcl-2”, the “ASMS ratio (%) n = 1” value is on record as 0.0% and the “ASMS ratio (%) n = 2” value was found to be 0.0%.

Take `CCOc1cncc(C#Cc2ccccc2C(=O)N2CCN(c3ccc(C(=O)NS(=O)(=O)c4ccc(NCCSc5ccccc5)c(C(F)(F)F)c4)cc3)CC2)c1` [B2R030-01, 4-[4-[2-[2-(5-Ethoxypyridin-3-yl)ethynyl]benzoyl]piperazin-1-yl]-N-[4-(2-phenylsulfanylethylamino)-3-(trifluoromethyl)phenyl]sulfonylbenzamide]: the “ASMS ratio (%)” value reads like this: (n = 1) 0.0%; (n = 2) 4.8%.

With `CCOc1cccc(-c2ccc(C(=O)N3CCN(c4ccc(C(=O)NS(=O)(=O)CC56CC7CC(CC(C7)C5)C6)nn4)CC3)cc2F)c1` [B2A005-01, N-(1-Adamantylmethylsulfonyl)-6-[4-[4-(3-ethoxyphenyl)-3-fluorobenzoyl]piperazin-1-yl]pyridazine-3-carboxamide], for the setting “AS-MS, mixture library, Bcl-2”, the “ASMS ratio (%) n = 1” value was found to be 4.7% and the “ASMS ratio (%) n = 2” value is reported as 12.4%.

`CCOc1cncc(-c2ccc(CN3CCN(c4ccc(C(=O)NS(=O)(=O)c5ccc(NCCSc6ccccc6)c([N+](=O)[O-])c5)cc4)CC3)c(CC)c2)c1` [B2Q050-01, 4-[4-[[4-(5-Ethoxypyridin-3-yl)-2-ethylphenyl]methyl]piperazin-1-yl]-N-[3-nitro-4-(2-phenylsulfanylethylamino)phenyl]sulfonylbenzamide]: where the note is “AS-MS, mixture library, Bcl-2”, the “ASMS ratio (%) n = 1” value is on record as 0.0% and the “ASMS ratio (%) n = 2” value was 0.0%.

As to `CCOc1cncc(-c2csc(C(=O)N3CCN(c4ccc(C(=O)NCC(F)(F)F)nn4)CC3)c2)c1` [B1K002-01, 6-[4-[4-(5-Ethoxypyridin-3-yl)thiophene-2-carbonyl]piperazin-1-yl]-N-(2,2,2-trifluoroethyl)pyridazine-3-carboxamide], under setting [1], the “ASMS ratio (%) n = 1” value turned out to be 0.0% and the “ASMS ratio (%) n = 2” value is recorded as 0.0%.

Turning to `CCOc1cccc(-c2ccc(C(=O)N3CCN(c4ccc(C(=O)NS(=O)(=O)c5ccc(NCCSc6ccccc6)c([N+](=O)[O-])c5)cc4)CC3)cc2F)c1` [B2Q027-01, 4-[4-[4-(3-Ethoxyphenyl)-3-fluorobenzoyl]piperazin-1-yl]-N-[3-nitro-4-(2-phenylsulfanylethylamino)phenyl]sulfonylbenzamide], where the note is “AS-MS, mixture library, Bcl-2”, the “ASMS ratio (%) n = 1” value was 0.2% and the “ASMS ratio (%) n = 2” value is given as −2.5%.

Regarding `CCOc1cccc(-c2ccc(CN3CCN(c4ccc(C(=O)NS(C)(=O)=O)cc4)CC3)cc2F)c1` [B2I051-01, 4-[4-[[4-(3-Ethoxyphenyl)-3-fluorophenyl]methyl]piperazin-1-yl]-N-methylsulfonylbenzamide], the “ASMS ratio (%)” value runs as follows: (n = 1) 0.0%; (n = 2) 0.0%.

For the compound `CCOc1cccc(-c2ccc(CN3CCN(c4ccc(C(=O)Nc5ccc(OC)cc5)cc4)CC3)c3ccccc23)c1` [B1O065-01, 4-[4-[[4-(3-Ethoxyphenyl)naphthalen-1-yl]methyl]piperazin-1-yl]-N-(4-methoxyphenyl)benzamide], under setting [2], the “ASMS ratio (%) n = 1” value is listed as 7.5% and the “ASMS ratio (%) n = 2” value is on record as 0.8%.

`CCOc1cncc(-c2ccc(C(=O)N3CCN(c4ccc(C(=O)Nc5ccc(OC)cc5)cc4)CC3)cc2F)c1` [B1O028-01, 4-[4-[4-(5-Ethoxypyridin-3-yl)-3-fluorobenzoyl]piperazin-1-yl]-N-(4-methoxyphenyl)benzamide]: under setting [2], the “ASMS ratio (%) n = 1” value was 4.9% and the “ASMS ratio (%) n = 2” value amounted to 0.4%.

On to `CCOc1cccc(-c2ccc(C(=O)N3CCN(c4ccc(C(=O)NS(C)(=O)=O)cc4)CC3)cc2C)c1` [B2I025-01, 4-[4-[4-(3-Ethoxyphenyl)-3-methylbenzoyl]piperazin-1-yl]-N-methylsulfonylbenzamide], for which, where the note is “AS-MS, mixture library, Bcl-2”, the “ASMS ratio (%) n = 1” value came to 0.0% and the “ASMS ratio (%) n = 2” value was determined as 0.0%.

(Values after patent US20240132431A1, “METHOD FOR ALKYLATING ACIDIC FUNCTIONAL GROUP” (Chugai Seiyaku Kabushiki Kaisha, priority 2021, published 2024).)
